We go through 22 compounds from US6541463B1, “Inhibitors of type 5 and type 3 17β-hydroxysteroid dehydrogenase and methods for their use” (Endorecherche, Inc., priority 1998, dated 2003).

Structures are written as SMILES.

One data set can be described thus: In vivo assay of oral bioavailability (plasma AUC 0-7 h by LCMS/MS). The settings on record: AUC 0-7h. Further details: species or system male Sprague Dawley rats. The method, then:
In column 1, the oral bioavailability of preferred type 5 inhibitors, expressed in ng/mL.h, was determined as described below in “Other Tests, A-In Vivo Assays of Bioavailability of Human Type 5 17β-HSD Inhibitors”. Higher number are desirable. ND means that a determination was not done.
The measurements at various time intervals were for values greater than or equal to 1.0 ng/mL and less than or equal to 50 ng/mL.
Male Sprague-Dawley rats [Crl:CD(SD)Br] weighing 275-350 g were obtained from Charles-River Canada Inc. and housed 2 per cage during the acclimation period and individually during the study period. The animals were maintained under a regimen of 12 hours light: 12 hours dark (lights on at 08:00). Animals received certified Rodent feed (Lab Diet #5002, pellets) and tap water ad libitum. Rats were fasted (access to water only) starting on the evening prior to dosing.
Each compound to be tested was administered to three animals as a suspension in 0.4% methylcellulose by oral gavage at a dose of 0.5 mg/rat (1.0 ml/rat). Four to eight new compounds were tested each day and one group of animals received megestrol acetate (MGA) under the same conditions on each dosing day as a reference. […] Blood samples were immediately transferred into a refrigerated 0.75 ml Microtainer containing EDTA and kept in an ice-water bath until centrifugation at 3000 rpm for 10 minutes. Plasma separation was performed rapidly (less than 50 minutes) after blood collection. One aliquot of 0.25 ml of plasma was then transferred into a borosilicate tube (13×100) and was rapidly frozen on dry-ice. Plasma samples were kept at −80° C. until measurement of plasma concentration of the inhibitor(s) by LCMS/MS.
Aliquots of rat plasma (0.250 mL) were transferred to 13×100 mm borosilicate tubes. Water (1.0 mL) and internal standard solution (0.1 mL) were added to each sample and vortexed for 2 min. A mixture of N-butyl chloride and acetone (v:v, 7:3) (3 mL) was added to each sample and vortexed for 2 min. This step was repeated and the combined organic phases were evaporated to dryness under nitrogen in a Turbo Vap evaporator at 35° C. The residue was reconstituted with 1 mL of methanol and evaporated in a Turbo Vap evaporator at 35° C. The final extract was reconstituted into 0.1 mL of methanol/water (v:v, 75:25) and then transferred into a conical vial for injection into the mass spectrometer.
The assay procedure was performed by analyzing, in duplicate, rat plasma samples spiked at six different Type 5 inhibitor concentrations (1, 2, 5, 10, 20 and 50 ng/mL). The lower limit of quantitation (LOQ) was established at 1.0 ng/mL. Values lower than 1.0 ng/mL were expressed as below limit of quantification (BLQ). […]
`COC(=O)CCCC(=O)O[C@]1(C(C)=O)CC[C@H]2[C@@H]3C=C(C)C4=CC(=O)CC[C@]4(C)[C@H]3CC[C@@]21C` [EM-1007, 6-Methyl-4,6-pregnadien-17α-ol-3,20-dione 4′-Carbomethoxybutyrate]: the “Oral Bioavailability AUC 0-7h” value was found to be 16.4 ng·h/mL.

The same data set, now with this note: male, Sprague-Dawley [Crl:CD(SD)Br], 0.5 mg; Table 4′; oral, rat plasma.
Usually AUC(0-t) stands for exposure summed from dosing to a finite time, without extrapolation to infinity. `CC1(C)CCC2(CCC3C4CCc5ccccc5C4CCC32C)OC1=O` (stereo not shown) [CS-224] yielded an AUC(0-t) of 18 ± 3.5 ng·h/mL. The same measure, in the same setting: then `C[C@]12CCC3c4ccc(O)cc4CCC3C1CC[C@@]21CCCC(=O)O1` (stereo partly drawn) [EM-919, 1,3,5(10)-estratrien-3-ol-17(R)-spiro-2′(6′-oxo)tetrahydropyran], with 4.8 ± 0.8 ng·h/mL; and `CC1(C)CCC2(CCC3C4CCc5cc(O)c([N+](=O)[O-])cc5C4CCC32C)OC1=O` (stereo not shown) [EM-1125-CS], with 95 ± 6.5 ng·h/mL; and `CC1CCC2(CCC3C4CCc5cc(O)c([N+](=O)[O-])cc5C4CCC32C)OC1=O` [EM-1131, 2-Nitro-1,3,5(10)-estratrien-3-ol-17(R)-spiro-2′-(5′-methyl-6′-oxo)tetrahydropyran], with 124 ± 27 ng·h/mL.

Compound `COCCOc1cc2c(cc1Cl)C1CCC3(C)C(CCC34CCC(C)(C)C(=O)O4)C1CC2` (stereo not shown) [EM-1371-CS] registered an exposure AUC(0-t) of 64 ± 21 ng·h/mL.

`COc1c(Br)cc2c(c1Br)CCC1C2CCC2(C)C1CCC21CCC(C)(C)C(=O)O1` (stereo not shown) [EM-1385-CS] came in with an AUC(0-t) of 301 ± 36 ng·h/mL. With `COc1ccc2c(c1)C(=O)CC1C3CCC4(CCC(C)(C)C(=O)O4)C3(C)CCC21O` (stereo not shown) [EM-1386], the AUC(0-t) was found to be 5600 ± 789 ng·h/mL. In turn, `CN(C)CCOc1ccc2c(c1)CCC1C2CCC2(C)C1CCC21CCC(C)(C)C(=O)O1` (stereo not shown) [EM-1389-CS] had an AUC(0-t) of 169 ± 2 ng·h/mL. The compound `CC1(C)CCC2(CCC3C4CCc5cc(OCCN6CCCCC6)ccc5C4CCC32C)OC1=O` [EM-1390-CS, 3-(N-piperidyl-ethyl)-1,3,5(10)-estratrien-17(R)-spiro-2′-(5′,5′-dimethyl-6′-oxo)-tetrahydropyran] registered an AUC(0-t) of 401 ± 5 ng·h/mL.

Turning to `CC1(C)CCC2(CCC3C4CCc5c(cc(Cl)c(O)c5Cl)C4CCC32C)OC1=O` (stereo not shown) [EM-1391-CS], the AUC(0-t) worked out at 28 ± 3.4 ng·h/mL. For the compound `CC1(C)CCC2(CCC3C4CCc5c(cc(Cl)c(OS(C)(=O)=O)c5Cl)C4CCC32C)OC1=O` (stereo not shown) [EM-1392-CS], the AUC(0-t) was 305 ± 49 ng·h/mL. In turn, `COc1cc2c(cc1C(F)(F)F)C1CCC3(C)C(CCC34CCC(C)(C)C(=O)O4)C1CC2` [EM-1409, 3-Methoxy-2-trifluoromethyl-1,3,5(10)-estratrien-17(R)-spiro-2′-(5′,5′-dimethyl-6′-oxo)tetrahydropyran] gave an AUC(0-t) of 36 ± 13 ng·h/mL. Regarding `CC1(C)CCC2(CCC3C4CCc5cc(O)c(C#N)cc5C4CCC32C)OC1=O` (stereo not shown) [EM-01645], the exposure AUC(0-t) stood at 52 ± 3 ng·h/mL.

The data set is the same for the next values; noted with them: male, Sprague-Dawley [Crl:CD(SD)Br], rat, plasma, po, 0.5 mg.
Compound `CCC(=O)O[C@]1(C(C)=O)CCC2C3C=C(C)C4=CC(=O)C[C@H](C)[C@]4(C)C3CC[C@@]21C` (stereo partly shown) [CS-243] had an AUC(0-t) of 11 ± 2.5 ng·h/mL. The same measure, in the same setting: as for `CCCC(=O)OC1(C(C)=O)CCC2C3C=C(C)C4=CC(=O)CC(C)C4(C)C3CCC21C` (stereo not shown) [CS-245], the figure is 18 ± 5 ng·h/mL; as for `CC(=O)O[C@]1(C(=O)N(C)C)CCC2C3C=C(C)C4=CC(=O)CC[C@]4(C)C3CC[C@@]21C` (stereo partly shown) [EM-1159], 452 ± 170 ng·h/mL. The same measure, in the same setting: as for `CCCCN(C)C(=O)[C@@]1(OC(C)=O)CCC2C3C=C(C)C4=CC(=O)CC[C@]4(C)C3CC[C@@]21C` (stereo partly shown) [EM-1165], the figure is 24 ± 3.6 ng·h/mL; as for `CC(=O)[C@@]1(OC(=O)CCCCF)CCC2C3C=C(C)C4=CC(=O)CC[C@]4(C)C3CC[C@@]21C` (stereo partly shown) [EM-1195-CS], 31 ± 5.5 ng·h/mL. On the same count and under the same terms, as for `COc1ccc(CC(=O)O[C@]2(C(C)=O)CCC3C4C=C(C)C5=CC(=O)C=C[C@]5(C)C4CC[C@@]32C)cc1` (stereo partly shown) [EM-1291], the figure is 94 ± 23 ng·h/mL. Compound `CC(=O)O[C@]1(C(C)=O)CCC2C3C=C(C)C4=CC(=O)CC[C@]4(C)C3CC[C@@]21C` (stereo partly shown) [megestrol acetate, reference compound] registered an AUC(0-t) of 92 ± 17 ng·h/mL.

The same data set, now with this note: male, Sprague-Dawley [Crl:CD(SD)Br], rat, plasma, po, 0.5 mg; Table 4′; cell marked (8 h).
`C[C@]12CCC3c4cc([N+](=O)[O-])c(O)cc4CCC3C1CC[C@@]21CCCC(=O)O1` (stereo partly drawn) [EM-1124, 2-Nitro-1,3,5(10)-estraetriene-3-ol-17(R)-spiro-2′-(6′-oxo)tetrahydropyran] yielded an AUC(0-t) of 5.1 ± 1 ng·h/mL.
